Measurements: patent US20240058335A1, “METHODS FOR TREATMENT OF CANCER USING ABL INHIBITORS AND DRUGS TARGETING THE MEVALONATE PATHWAY” (Duke University, priority 2021, published 2024)

Test system: PC9 cells
Test: Pooled metabolically focused CRISPR/Cas9 loss-of-function screen with GNF5 (gene-level three scores)
Format: cell-based, human
Method: POOLED CRISPR SCREEN. PC9 cells were seeded into 12, six-well plates at 0.25e6 cells/well. A separate plate was also prepared for no puromycin and puromycin controls of non-transduced cells. Cells were transduced at a MOI of 0.2. 24 hours after viral transduction, cells were replated into puromycin-containing media. A sample was collected at 48 hours of puromycin exposure to confirm library coverage in the transduced population. Transduced cells were expanded in puromycin for a total of 10 days prior to drug introduction, at which point the transduced cell population was split into vehicle (DMSO) and GNF5 treatment conditions and maintained for up to two weeks. Cells were treated with 2 μM GNF5 which corresponded to 20-30% loss in cell viability following a 3-day dose response assay. Cells were counted, replated, and drug replenished every day. At any given point during the screen, each replicate was represented by a minimum of 12E6 cells, sufficient to provide 1000×coverage of the library (1000 cells per unique sgRNA). Samples of 25E6 cells were collected upon screen initiation, termination, and at weekly intervals. Following completion of the screens, DNA was extracted (DNeasy Blood & Tissue Kit, QIAGEN) and prepared for sequencing as previously described.
SCREEN ANALYSIS. Deep sequencing was performed on an Illumina Nextseq platform (75 bp, paired-ended) to identify differences in library composition. All sequencing was performed by the Duke University genome sequencing facility. Barcoded reads were mapped to the guide RNA library using bcSeq to obtain the counts for each guide RNA. Determinations of genetic essentiality and drug sensitization/resistance were made by evaluating differential guide compositions between the initial population and subsequent drug-treated and vehicle-treated cells populations. Briefly, the fractional representation (FR) for the guide reads within a sample was normalized to the total reads attributed to that sample. A direct comparison between two samples was represented by the quotient of the respective FRs in the log 2 scale, which is termed the depletion metric (DM). The guide-level DMs for each gene were then collapsed to gene-level scores by taking the average of the top three most depleted constructs resulting in a biased analysis focused on depleted genes. Genes represented by fewer than 5 guides per condition were excluded from analysis. In the 2,322-gene library, 7 genes (representing 0.3% of the total library) were excluded. Genetic essentiality was calculated by considering the depletion/enrichment of the vehicle-treated (DSMO) population over time (DMSO final/DSMO initial). Drug sensitization/resistance was calculated by considering the depletion/enrichment of the drug-treated population relative to the vehicle-treated population (Drug final/DMSO final). All depletion/enrichment effects are reported as log 2 ratios. All analyses were conducted using the R statistical environment (https://www.r-project.org/) along with extension packages from the comprehensive R archive network (CRAN; available at cran.r-project.org/) and the Bioconductor project. The analyses were carried out with adherence to the principles of reproducible analysis using the knitr package for generation of dynamic reports and gitlab for source code management. The code for replicating the statistical analysis was made accessible through a public source code repository, available at gitlab.oit.duke.edu/dcibioinformatics/pubs/pendergast-crispr-barcode.
Because many metabolic genes are known to be essential to cellular viability, determining the effect of cell-essential genetic loss on apoptosis is difficult. […] The remaining cell-essential genes are captured by the screen.
Metabolically focused CRISPR/Cas9 loss-of-function screen identifies HMGCR inhibition with statin therapy as an apoptotic sensitizer in lung cancer cells. […]

O=C(NCCO)c1cccc(-c2cc(Nc3ccc(OC(F)(F)F)cc3)ncn2)c1 [GNF5]
log2 TS (CCBL1 knockout): −0.2362 | log2 TS (CCBL2 knockout): −0.00176 | log2 TS (CCDC102B knockout): −0.3186 | log2 TS (CCDC155 knockout): −0.128 | log2 TS (CDA knockout): −0.3678 | log2 TS (CDADC1 knockout): −0.189 | log2 TS (CDC14A knockout): −0.5269 | log2 TS (CDC14B knockout): −0.3312 | log2 TS (CDC25A knockout): −0.3125 | log2 TS (CDC25B knockout): −0.5769 | log2 TS (CDC25C knockout): 0.02041 | log2 TS (CDKN3 knockout): −0.2304 | log2 TS (CDO1 knockout): −0.3626 | log2 TS (CECR1 knockout): 0.1378 | log2 TS (CEL knockout): −0.2626 | log2 TS (CERK knockout): −0.2067 | log2 TS (CERKL knockout): −0.4755 | log2 TS (CERS1 knockout): −0.5675 | log2 TS (CERS2 knockout): −0.1757 | log2 TS (CERS3 knockout): −0.3966 | log2 TS (CERS4 knockout): −0.0552 | log2 TS (CERS5 knockout): −0.09954 | log2 TS (CERS6 knockout): −0.2316 | log2 TS (CES1 knockout): −0.1103 | log2 TS (CES2 knockout): −0.115 | log2 TS (CES3 knockout): −0.1816 | log2 TS (CFTR knockout): −0.552 | log2 TS (CHAT knockout): 0.03889 | log2 TS (CHI3L1 knockout): −0.08904 | log2 TS (CHI3L2 knockout): −0.203 | log2 TS (CHIA knockout): −0.1854 | log2 TS (CHID1 knockout): −0.2305 | log2 TS (CHIT1 knockout): −0.1013 | log2 TS (CHKA knockout): 0.1899 | log2 TS (CHPF knockout): −0.1196 | log2 TS (CHPT1 knockout): 0.05664 | log2 TS (CHRNA1 knockout): −0.2091 | log2 TS (CHRNA2 knockout): −0.09543 | log2 TS (CHRNA3 knockout): 0.193 | log2 TS (CHRNA4 knockout): −0.2119 | log2 TS (CHRNA5 knockout): −0.1927 | log2 TS (CHRNA6 knockout): −0.00193 | log2 TS (CHRNA7 knockout): −0.4166 | log2 TS (CHRNA9 knockout): −0.2542 | log2 TS (CHRNA10 knockout): −0.09517 | log2 TS (CHRNB1 knockout): −0.07599 | log2 TS (CHRNB2 knockout): −0.2245 | log2 TS (CHRNB3 knockout): −0.3189 | log2 TS (CHRNB4 knockout): −0.4141 | log2 TS (CHRND knockout): −0.5686 | log2 TS (CHRNE knockout): −0.137 | log2 TS (CHRNG knockout): 0.05205 | log2 TS (CHST1 knockout): −0.0245 | log2 TS (CHST6 knockout): −0.3091 | log2 TS (CKB knockout): −0.247 | log2 TS (CKM knockout): −0.3126 | log2 TS (CKMT2 knockout): −0.2525 | log2 TS (CLC knockout): −0.314 | log2 TS (CLCA1 knockout): −0.142 | log2 TS (CLCA2 knockout): −0.4614 | log2 TS (CLCA4 knockout): 0.05396 | log2 TS (CLCN1 knockout): −0.1326 | log2 TS (CLCN2 knockout): −0.1747 | log2 TS (CLCN3 knockout): −0.494 | log2 TS (CLCN4 knockout): 0.0428 | log2 TS (CLCN5 knockout): −0.4161 | log2 TS (CLCN6 knockout): −0.3635 | log2 TS (CLCN7 knockout): −0.1319 | log2 TS (CLCNKA knockout): −0.1822 | log2 TS (CLCNKB knockout): −0.3352 | log2 TS (CLIC1 knockout): −0.09123 | log2 TS (CLIC2 knockout): −0.1159 | log2 TS (CLIC3 knockout): 0.07472 | log2 TS (CLIC4 knockout): −0.06827 | log2 TS (CLIC5 knockout): −0.3935 | log2 TS (CLIC6 knockout): −0.02678 | log2 TS (CLYBL knockout): 0.05734 | log2 TS (CMAS knockout): −0.3056 | log2 TS (CMPK1 knockout): −0.1483 | log2 TS (CNDP1 knockout): −0.1314 | log2 TS (CNDP2 knockout): −0.1743 | log2 TS (CNGA1 knockout): −0.1817 | log2 TS (CNGA2 knockout): −0.3543 | log2 TS (CNGA3 knockout): 0.05484 | log2 TS (CNGA4 knockout): −0.3821 | log2 TS (CNGB1 knockout): −0.4165 | log2 TS (CNGB3 knockout): −0.1968 | log2 TS (COA5 knockout): −0.2719 | log2 TS (COASY knockout): 0.06804 | log2 TS (COMT knockout): −0.2352 | log2 TS (COMTD1 knockout): −0.123 | log2 TS (COQ3 knockout): −0.1115 | log2 TS (COQ5 knockout): −0.3619 | log2 TS (COQ6 knockout): −0.1357 | log2 TS (COQ9 knockout): 0.009879 | log2 TS (COX10 knockout): −0.3233 | log2 TS (COX11 knockout): −0.3148 | log2 TS (COX15 knockout): −0.6246 | log2 TS (COX17 knockout): −0.66 | log2 TS (COX20 knockout): −0.2164
